Results: ChEMBL document CHEMBL2074575, “Human organic anion transporting polypeptide-C (SLC21A6) is a major determinant of rifampin-mediated pregnane X receptor activation” (J Pharmacol Exp Ther, 2003)

Key:
Format in all cases: functional, cell-based
[1] = molecular target: T1, Solute carrier organic anion transporter family member 1B1 (Homo sapiens, UniProt Q9Y6L6); experiment: TP_TRANSPORTER: inhibition of E217betaG uptake (E217betaG: 0.5 uM, Hyperforin: 10 uM) in OATP-C-expressing HeLa cells
T1 sequence (Q9Y6L6 whole entry): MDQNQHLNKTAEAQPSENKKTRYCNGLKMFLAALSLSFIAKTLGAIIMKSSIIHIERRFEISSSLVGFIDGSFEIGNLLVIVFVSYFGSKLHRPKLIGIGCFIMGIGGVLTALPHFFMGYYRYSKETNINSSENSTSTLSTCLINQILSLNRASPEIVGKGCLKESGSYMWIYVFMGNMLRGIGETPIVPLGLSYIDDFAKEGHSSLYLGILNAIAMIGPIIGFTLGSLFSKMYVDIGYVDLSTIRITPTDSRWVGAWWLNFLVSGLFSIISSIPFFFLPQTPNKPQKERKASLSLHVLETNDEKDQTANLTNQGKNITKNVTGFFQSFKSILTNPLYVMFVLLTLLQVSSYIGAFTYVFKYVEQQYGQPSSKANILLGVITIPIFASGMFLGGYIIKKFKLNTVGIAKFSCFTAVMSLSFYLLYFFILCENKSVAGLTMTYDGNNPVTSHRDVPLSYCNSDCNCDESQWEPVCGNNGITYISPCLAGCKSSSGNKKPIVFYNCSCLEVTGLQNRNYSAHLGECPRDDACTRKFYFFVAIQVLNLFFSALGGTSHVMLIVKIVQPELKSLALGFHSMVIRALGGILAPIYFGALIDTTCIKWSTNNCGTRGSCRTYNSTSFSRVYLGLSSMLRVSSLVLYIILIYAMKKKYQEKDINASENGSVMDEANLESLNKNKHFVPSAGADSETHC

[2] = molecular target: T1, Solute carrier organic anion transporter family member 1B1; experiment: TP_TRANSPORTER: inhibition of E217betaG uptake (E217betaG: 0.5 uM, BSP: 10 uM) in OATP-C-expressing HeLa cells
[3] = molecular target: T1, Solute carrier organic anion transporter family member 1B1; experiment: TP_TRANSPORTER: inhibition of E217betaG uptake (E217betaG: 0.5 uM, Rifampicin: 10 uM) in OATP-C-expressing HeLa cells
[4] = molecular target: T1, Solute carrier organic anion transporter family member 1B1; experiment: TP_TRANSPORTER: inhibition of E217betaG uptake (E217betaG: 0.5 uM, Nelfinavir: 10 uM) in OATP-C-expressing HeLa cells
[5] = molecular target: T1, Solute carrier organic anion transporter family member 1B1; experiment: TP_TRANSPORTER: inhibition of E217betaG uptake (E217betaG: 0.5 uM, Indinavir: 10 uM) in OATP-C-expressing HeLa cells
[6] = molecular target: T1, Solute carrier organic anion transporter family member 1B1; experiment: TP_TRANSPORTER: inhibition of E217betaG uptake (E217betaG: 0.5 uM, Saquinavir: 100 uM) in OATP-C-expressing HeLa cells
[7] = substrate: CO[C@H]1/C=C/O[C@@]2(C)Oc3c(C)c(O)c4c(O)c(c(/C=N/N5CCN(C)CC5)c(O)c4c3C2=O)NC(=O)/C(C)=C\C=C\[C@H](C)[C@H](O)[C@@H](C)[C@@H](O)[C@@H](C)[C@H](OC(C)=O)[C@@H]1C; experiment: TP_TRANSPORTER: uptake in OATP-C-expressing HeLa cells

## CC(C)=CCC[C@]1(C)[C@@H](CC=C(C)C)C[C@]2(CC=C(C)C)C(=O)C(CC=C(C)C)=C(O)[C@@]1(C(=O)C(C)C)C2=O
[1]
  Activity: inhibitor [(at a rough estimate) 10 % of control]

## O=C1OC(c2ccc(O)c(S(=O)(=O)[O-])c2)(c2ccc(O)c(S(=O)(=O)[O-])c2)c2c(Br)c(Br)c(Br)c(Br)c21.[Na+].[Na+] [SULFOBROMOPHTHALEIN SODIUM]
[2]
  Activity: inhibitor [(at a rough estimate) <5 % of control]

## CO[C@H]1/C=C/O[C@@]2(C)Oc3c(C)c(O)c4c(O)c(c(/C=N/N5CCN(C)CC5)c(O)c4c3C2=O)NC(=O)/C(C)=C\C=C\[C@H](C)[C@H](O)[C@@H](C)[C@@H](O)[C@@H](C)[C@H](OC(C)=O)[C@@H]1C [RIFAMPIN]
[3]
  Activity: inhibitor [(at a rough estimate) 10 % of control]

## Cc1c(O)cccc1C(=O)N[C@@H](CSc1ccccc1)[C@H](O)CN1C[C@H]2CCCC[C@H]2C[C@H]1C(=O)NC(C)(C)C
[4]
  Activity: inhibitor [(at a rough estimate) 15 % of control]

## CC(C)(C)NC(=O)[C@@H]1CN(Cc2cccnc2)CCN1C[C@@H](O)C[C@@H](Cc1ccccc1)C(=O)N[C@H]1c2ccccc2C[C@H]1O.O
[5]
  Activity: inhibitor [(at a rough estimate) 35 % of control]

## CC(C)(C)NC(=O)[C@@H]1C[C@@H]2CCCC[C@@H]2CN1C[C@@H](O)[C@H](Cc1ccccc1)NC(=O)[C@H](CC(N)=O)NC(=O)c1ccc2ccccc2n1
[6]
  Activity: inhibitor [(at a rough estimate) 10 % of control]

B1: Solute carrier organic anion transporter family member 1B1 (Homo sapiens) (protein)
chain: MDQNQHLNKTAEAQPSENKKTRYCNGLKMFLAALSLSFIAKTLGAIIMKSSIIHIERRFEISSSLVGFIDGSFEIGNLLVIVFVSYFGSKLHRPKLIGIGCFIMGIGGVLTALPHFFMGYYRYSKETNINSSENSTSTLSTCLINQILSLNRASPEIVGKGCLKESGSYMWIYVFMGNMLRGIGETPIVPLGLSYIDDFAKEGHSSLYLGILNAIAMIGPIIGFTLGSLFSKMYVDIGYVDLSTIRITPTDSRWVGAWWLNFLVSGLFSIISSIPFFFLPQTPNKPQKERKASLSLHVLETNDEKDQTANLTNQGKNITKNVTGFFQSFKSILTNPLYVMFVLLTLLQVSSYIGAFTYVFKYVEQQYGQPSSKANILLGVITIPIFASGMFLGGYIIKKFKLNTVGIAKFSCFTAVMSLSFYLLYFFILCENKSVAGLTMTYDGNNPVTSHRDVPLSYCNSDCNCDESQWEPVCGNNGITYISPCLAGCKSSSGNKKPIVFYNCSCLEVTGLQNRNYSAHLGECPRDDACTRKFYFFVAIQVLNLFFSALGGTSHVMLIVKIVQPELKSLALGFHSMVIRALGGILAPIYFGALIDTTCIKWSTNNCGTRGSCRTYNSTSFSRVYLGLSSMLRVSSLVLYIILIYAMKKKYQEKDINASENGSVMDEANLESLNKNKHFVPSAGADSETHC
[7]
  Km: 1.5 µM
